According to patent US20070156042A1, “Medical device system and method for tracking and visualizing a medical device system under MR guidance” (priority 2005, published 2007):

Assay: Diffusion of a fluorescent probe in swollen gelatin gel by FRAP
Format: physicochemical
Settings: coating thickness 60 μm, diffusion coefficient 9×10−12 m2s−1
Description: To assess the stability of DTPA[Gd(III)] in the gelatin coating, the diffusion of a fluorescence probe in gelatin was studied by the technique of fluorescence recovery after photobleaching (FRAP). The instrument and data analysis scheme are described in Kim, S. H. and Yu, H., J. Phys. Chem. 1992, 96, 4034, which is hereby fully incorporated by reference. Fluorescein was used as the fluorescence probe due, in part, to its molecular size being roughly the same as that of DTPA[Gd(III)]. The focus of the study was to examine the possible retardation effects of gelatin concentration and cross-link density on the diffusion, which was determined at room temperature, i.e., below the gel point of gelatin. The diffusion of fluorescein probe slows down with the increase of gelatin concentration. The diffusion coefficient decreases from 1.5×10−10 to 9×10−12 m2s−1 when the concentration of gelatin increases from 9% to 40%. […] Accordingly, the probe diffusion is more likely controlled by the concentration of gelatin rather than the cross-link density. On the other hand, the cross-link density may determine the swelling ratio of gelatin, i.e., the concentration of gelatin in aqueous solution. […]

O=C(O)CN(CCN(CC(=O)O)CC(=O)O)CCN(CC(=O)O)CC(=O)O [DTPA, diethylenetriaminepentaacetic acid]
time to diffuse out of the gelatin coating: about 67 seconds
